Reference: article PMC8778314, “A New Series of Indeno[1,2-c]pyrazoles as EGFR TK Inhibitors for NSCLC Therapy” (Molecules, 2022)

How the values were obtained:
[1] = tested on: A549 human lung adenocarcinoma cells; assay: MTT cell viability assay, A549 cells; settings: A549, 72 h, read-out: IC50 (µM) A549 Cells
Experimental: (§2) In experiments, K562 cells and PBMCs were cultured in 24-well and 96-well plates (Asahi Glass Co., Chiba, Japan) at 4 × 10^4 and 1 × 10^6 cells/mL concentrations, respectively, for 48 h. A549 cells were plated (24-well plate) at 1 × 10^4 cells/mL and incubated for 72 h (the optimal cell number was determined in our previous studies) [34, 35, 36]. The stock solutions of the compounds and erlotinib in concentrations ranging from 1 µM to 10 mM were prepared in DMSO (Wako Pure Chemical Industries, Osaka, Japan) and further diluted with fresh culture medium. The final DMSO concentration was adjusted as 1%, which had no effect on the cell viability [37].
(§3) Then, supernatants were discarded, and the formazan crystals were solubilized with a 100 μL DMSO addition. The absorbance of the solution was measured using an Infinite M1000 microplate reader (Tecan, Grödig, Austria) at a wavelength of 570 and 630 nm.

[2] = target: T1, EGFR TK (Homo sapiens, UniProt P00533); assay: EGFR TK inhibition, kinase profiling / ADP-Glo Kinase Assay; format: biochemical; settings: 4 h incubation at room temperature
T1 construct: purchased Promega Corporation
Experimental: Manufacturer′s instructions (Promega Corporation, Madison, WI, USA) were applied for the kinase profiling assay protocol (TK-1 and TK-2) with small changes [40, 41, 42]. […] The kinase working stocks (2 µL), 2 µL of the ATP/substrate working stocks, and 1 µL of the tested compound solution (3–100 µM) and erlotinib solution (0.01–100 µM) or 5% DMSO solution in the 384-well plate were used for the kinase reactions. Following the 4 h of incubation at room temperature, the activity of kinases was screened by means of the ADP-Glo Kinase Assay (Promega Corporation, Madison, WI, USA) based on the manufacturer′s protocol. The Infinite M1000 microplate reader (Tecan, Grödig, Austria) was used to measure the kinase inhibitory effects of the compounds in a dose-response manner. Besides, the IC50 values of the tested compounds were determined using ImageJ software.

[3] = target: T2, HER2 (Homo sapiens, UniProt P04626); assay: Kinase selectivity profiling TK-1, HER2; format: biochemical; settings: 30 µM concentration
T2 construct: purchased Promega Corporation
Experimental: (§1) Manufacturer′s instructions (Promega Corporation, Madison, WI, USA) were applied for the kinase profiling assay protocol (TK-1 and TK-2) with small changes. According to this protocol, the kinase stocks in the kinase strips and their substrate stocks in the substrate strips were diluted with 95 µL of 2.5× kinase buffer and 15 µL of 100 µM ATP solutions, respectively. The kinase working stocks (2 µL), 2 µL of the ATP/substrate working stocks, and 1 µL of the tested compound solution (3–100 µM) and erlotinib solution (0.01–100 µM) or 5% DMSO solution in the 384-well plate were used for the kinase reactions. Following the 4 h of incubation at room temperature, the activity of kinases was screened by means of the ADP-Glo Kinase Assay (Promega Corporation, Madison, WI, USA) based on the manufacturer′s protocol. The Infinite M1000 microplate reader (Tecan, Grödig, Austria) was used to measure the kinase inhibitory effects of the compounds in a dose-response manner. Besides, the IC50 values of the tested compounds were determined using ImageJ software.

[4] = target: T3, LCK (Homo sapiens, UniProt P06239); assay: Kinase selectivity profiling TK-2, LCK; format: biochemical; settings: 30 µM concentration
T3 construct: purchased Promega Corporation
Experimental: as §1

[5] = tested on: A549 cells; assay: Annexin V/ethidium homodimer III staining assay (apoptosis); format: cell-based, human; settings: IC50 concentrations, 15 h
Experimental: Then, an apoptotic/necrotic cell detection kit (PromoKine, Heidelberg, Germany) was used according to manufacturer′s instructions with some modifications. Briefly, the cells were washed twice with 1× binding buffer, a staining solution containing 50 μL of 1× binding buffer, 5 μL of FITC-Annexin V solution, and 5 μL of ethidium homodimer III solution, and treated for 30 min at room temperature in a protected-light environment. After washing of cells in 1× binding buffer, cells were analyzed under a Biorevo BZ-9000 all-in-one fluorescence microscope (Keyence, Osaka, Japan). The number of apoptotic cells, late apoptotic or necrotic cells, and necrotic cells was quantified as previously described.

[6] = tested on: peripheral blood mononuclear cells (PBMCs); assay: MTT cell viability assay, PBMCs; settings: for cytotoxicity towards PBMCs (in words): MTT, normal cells; for IC50: PBMC, 48 h, read-out: IC50 (µM) PBMCs
Experimental: as §2, §3

[7] = tested on: K562 chronic myelogenous leukemia (CML) cells; assay: MTT cell viability assay, K562 cells; settings: Homo sapiens, K562, 48 h, read-out: IC50 (µM) K562 Cells
Experimental: as §2, §3

T1 sequence (P00533 25-1210): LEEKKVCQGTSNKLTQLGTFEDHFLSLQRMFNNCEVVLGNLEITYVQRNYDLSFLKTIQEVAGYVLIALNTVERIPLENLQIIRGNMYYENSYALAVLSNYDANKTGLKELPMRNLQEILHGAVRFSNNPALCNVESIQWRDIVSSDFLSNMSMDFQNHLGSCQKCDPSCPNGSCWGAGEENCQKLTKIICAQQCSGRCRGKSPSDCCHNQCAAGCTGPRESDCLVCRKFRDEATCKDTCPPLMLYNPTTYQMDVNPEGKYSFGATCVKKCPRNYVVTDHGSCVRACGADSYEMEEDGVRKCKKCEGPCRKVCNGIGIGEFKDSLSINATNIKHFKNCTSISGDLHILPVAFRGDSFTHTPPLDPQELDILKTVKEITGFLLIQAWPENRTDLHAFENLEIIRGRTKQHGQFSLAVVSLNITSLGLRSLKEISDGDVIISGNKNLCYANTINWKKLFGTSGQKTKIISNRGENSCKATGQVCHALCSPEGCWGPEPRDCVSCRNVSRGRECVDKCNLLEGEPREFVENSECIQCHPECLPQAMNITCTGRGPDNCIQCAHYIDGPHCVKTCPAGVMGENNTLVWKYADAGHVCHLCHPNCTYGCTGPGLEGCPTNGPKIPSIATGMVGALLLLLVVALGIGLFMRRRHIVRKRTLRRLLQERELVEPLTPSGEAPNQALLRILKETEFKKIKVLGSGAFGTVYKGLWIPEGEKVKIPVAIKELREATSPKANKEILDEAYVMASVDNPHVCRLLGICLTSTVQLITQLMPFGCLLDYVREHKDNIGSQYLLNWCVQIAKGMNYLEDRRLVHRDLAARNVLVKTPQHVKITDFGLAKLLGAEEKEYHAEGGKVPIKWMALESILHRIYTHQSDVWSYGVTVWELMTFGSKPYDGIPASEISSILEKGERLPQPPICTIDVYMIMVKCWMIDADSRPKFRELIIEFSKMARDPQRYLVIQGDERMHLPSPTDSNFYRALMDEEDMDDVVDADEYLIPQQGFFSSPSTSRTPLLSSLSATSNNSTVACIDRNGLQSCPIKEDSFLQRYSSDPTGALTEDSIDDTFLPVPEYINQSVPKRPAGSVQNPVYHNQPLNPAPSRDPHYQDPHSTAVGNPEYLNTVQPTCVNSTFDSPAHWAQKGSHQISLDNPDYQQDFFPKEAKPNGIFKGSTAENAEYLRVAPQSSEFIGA
T3 sequence (P06239 whole entry): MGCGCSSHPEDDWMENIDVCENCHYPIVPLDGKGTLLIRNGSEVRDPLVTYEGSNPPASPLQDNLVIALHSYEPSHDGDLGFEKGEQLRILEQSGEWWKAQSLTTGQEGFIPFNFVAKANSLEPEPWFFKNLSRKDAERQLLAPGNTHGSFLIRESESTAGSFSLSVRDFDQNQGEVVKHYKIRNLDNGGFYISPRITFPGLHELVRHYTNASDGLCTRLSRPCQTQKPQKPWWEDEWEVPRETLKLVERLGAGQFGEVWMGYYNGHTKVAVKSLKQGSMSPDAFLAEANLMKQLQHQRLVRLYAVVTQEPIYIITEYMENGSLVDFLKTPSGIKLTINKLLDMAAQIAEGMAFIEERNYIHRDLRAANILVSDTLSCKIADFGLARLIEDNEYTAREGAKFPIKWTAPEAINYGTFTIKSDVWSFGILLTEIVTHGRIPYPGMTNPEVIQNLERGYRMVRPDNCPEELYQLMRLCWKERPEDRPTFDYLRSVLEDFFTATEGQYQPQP
T2 sequence (P04626 23-1255): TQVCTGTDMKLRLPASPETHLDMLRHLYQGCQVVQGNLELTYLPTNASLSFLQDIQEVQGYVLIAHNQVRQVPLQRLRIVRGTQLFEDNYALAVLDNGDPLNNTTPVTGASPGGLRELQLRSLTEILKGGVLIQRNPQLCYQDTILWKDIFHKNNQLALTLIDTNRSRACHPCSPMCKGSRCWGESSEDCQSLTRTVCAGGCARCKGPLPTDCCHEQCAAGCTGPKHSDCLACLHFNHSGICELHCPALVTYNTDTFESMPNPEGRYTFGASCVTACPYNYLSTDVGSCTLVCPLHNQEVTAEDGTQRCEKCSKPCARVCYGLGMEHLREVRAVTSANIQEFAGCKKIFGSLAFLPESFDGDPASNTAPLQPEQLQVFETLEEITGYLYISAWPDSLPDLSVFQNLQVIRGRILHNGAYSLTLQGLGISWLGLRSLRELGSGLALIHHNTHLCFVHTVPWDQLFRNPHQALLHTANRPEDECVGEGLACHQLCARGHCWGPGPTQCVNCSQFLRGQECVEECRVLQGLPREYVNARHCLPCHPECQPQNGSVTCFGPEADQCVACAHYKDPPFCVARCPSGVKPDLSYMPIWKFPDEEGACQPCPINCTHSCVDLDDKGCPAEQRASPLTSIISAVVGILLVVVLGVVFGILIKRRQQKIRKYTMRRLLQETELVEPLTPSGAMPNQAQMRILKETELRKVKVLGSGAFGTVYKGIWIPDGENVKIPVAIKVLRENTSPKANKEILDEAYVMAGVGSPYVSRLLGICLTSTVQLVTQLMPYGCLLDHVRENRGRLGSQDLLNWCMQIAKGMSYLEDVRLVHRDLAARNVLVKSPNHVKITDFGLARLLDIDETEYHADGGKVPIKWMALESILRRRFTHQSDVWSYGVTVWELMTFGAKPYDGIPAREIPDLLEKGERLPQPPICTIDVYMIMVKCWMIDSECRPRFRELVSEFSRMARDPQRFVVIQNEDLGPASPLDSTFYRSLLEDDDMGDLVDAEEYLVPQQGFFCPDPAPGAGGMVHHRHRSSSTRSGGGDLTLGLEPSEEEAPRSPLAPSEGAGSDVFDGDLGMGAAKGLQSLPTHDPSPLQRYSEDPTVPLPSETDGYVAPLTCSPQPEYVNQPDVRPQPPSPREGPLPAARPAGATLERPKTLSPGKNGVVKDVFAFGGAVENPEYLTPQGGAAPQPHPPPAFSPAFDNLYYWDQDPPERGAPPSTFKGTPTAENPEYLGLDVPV

| melting point [°C] | IC50 [1] [µM] | IC50 [2] [µM] | HER2 inhibition compared to erlotinib [3] | LCK inhibition compared to erlotinib [4] | IC50 [7] [µM] | SMILES | percentage of A549 cells undergoing apoptosis [5] [%] | cytotoxicity towards PBMCs (in words) [6] | IC50 [6] [µM] |
| --- | --- | --- | --- | --- | --- | --- | --- | --- | --- |
| 116 to 117 | > 10 |  |  |  |  | COc1cc2c(cc1Cl)Cc1c-2nn(-c2ccc(S(C)(=O)=O)cc2)c1-c1ccc(N2CCCCC2)cc1 [Compound 6, 6-Chloro-7-methoxy-2-(4-(methylsulfonyl)phenyl)-3-[4-(piperidin-1-yl)phenyl]-2,4-dihydroindeno[1,2-c]pyrazole] |  |  |  |
|  | > 10 |  |  |  |  | COc1cc2c(cc1Cl)Cc1c-2nn(-c2ccc(Cl)cc2)c1-c1ccc(N2CCCCC2)cc1 [Compound 3, 6-Chloro-7-methoxy-2-(4-chlorophenyl)-3-[4-(piperidin-1-yl)phenyl]-2,4-dihydroindeno[1,2-c]pyrazole] |  |  |  |
| 125 to 126 | 6.13 ± 1.42 | 17.6 | more significantly than erlotinib | more significantly than erlotinib | 2.65 ± 0.75 | COc1cc2c(cc1Cl)Cc1c-2nn(-c2ccc(Br)cc2)c1-c1ccc(N2CCCCC2)cc1 [Compound 4, 6-Chloro-7-methoxy-2-(4-bromophenyl)-3-[4-(piperidin-1-yl)phenyl]-2,4-dihydroindeno[1,2-c]pyrazole] | 56.30 | no significant cytotoxicity | 19.6 ± 4.25 |
|  | > 10 |  |  |  |  | COc1cc2c(cc1Cl)Cc1c-2nn(-c2ccc(C#N)cc2)c1-c1ccc(N2CCCCC2)cc1 [Compound 5, 6-Chloro-7-methoxy-2-(4-cyanophenyl)-3-[4-(piperidin-1-yl)phenyl]-2,4-dihydroindeno[1,2-c]pyrazole] |  |  |  |
| 123 to 124 | 8.67 ± 2.18 | 46.7 ± 7.04 |  |  | 2.76 ± 0.83 | COc1cc2c(cc1Cl)Cc1c-2nn(-c2ccc(C)cc2)c1-c1ccc(N2CCCCC2)cc1 [Compound 7, 6-Chloro-7-methoxy-2-(4-methylphenyl)-3-[4-(piperidin-1-yl)phenyl]-2,4-dihydroindeno[1,2-c]pyrazole] |  | no significant cytotoxicity | > 100 |
|  | 7.99 ± 1.84 | 55.3 ± 8.68 |  |  | 3.49 ± 0.92 | COc1cc2c(cc1Cl)Cc1c-2nn(-c2ccccc2)c1-c1ccc(N2CCCCC2)cc1 [Compound 1, 6-Chloro-7-methoxy-2-phenyl-3-[4-(piperidin-1-yl)phenyl]-2,4-dihydroindeno[1,2-c]pyrazole] |  | no significant cytotoxicity | 95.7 ± 11.7 |
| 188 to 190 | > 10 |  |  |  |  | COc1cc2c(cc1Cl)Cc1c-2nn(-c2ccc(F)cc2)c1-c1ccc(N2CCCCC2)cc1 [Compound 2, 6-Chloro-7-methoxy-2-(4-fluorophenyl)-3-[4-(piperidin-1-yl)phenyl]-2,4-dihydroindeno[1,2-c]pyrazole] |  |  |  |

| SMILES | melting point [°C] | IC50 [1] [µM] | IC50 [2] [µM] | HER2 inhibition compared to erlotinib [3] | LCK inhibition compared to erlotinib [4] | IC50 [7] [µM] | percentage of A549 cells undergoing apoptosis [5] [%] | cytotoxicity towards PBMCs (in words) [6] | IC50 [6] [µM] |
| --- | --- | --- | --- | --- | --- | --- | --- | --- | --- |
| C#Cc1cccc(Nc2ncnc3cc(OCCOC)c(OCCOC)cc23)c1 [Erlotinib, reference compound] |  | 19.7 ± 3.15 |  |  |  | 29.6 ± 5.26 | 53.60 |  | 44.3 ± 7.84 |
